Laboratory results as given in ChEMBL document CHEMBL1129677, “3 alpha-(4'-substituted phenyl)tropane-2 beta-carboxylic acid methyl esters: novel ligands with high affinity and selectivity at the dopamine transporter” (J Med Chem, 1996).

Columns and labels:
[1] = biological target: Norepinephrine transporter (Rattus norvegicus, UniProt Q9WTR4); test: Binding potency for Norepinephrine transporter using [3H]NE
[2] = biological target: Sodium-dependent dopamine transporter (Rattus norvegicus, UniProt P23977); test: Inhibition of [3H]WIN-35428 binding to Dopamine transporter
[3] = biological target: Sodium-dependent serotonin transporter (Rattus norvegicus, UniProt P31652); test: Binding potency for Serotonin transporter using [3H]- paroxetine
Chain of Sodium-dependent serotonin transporter (P31652 whole entry): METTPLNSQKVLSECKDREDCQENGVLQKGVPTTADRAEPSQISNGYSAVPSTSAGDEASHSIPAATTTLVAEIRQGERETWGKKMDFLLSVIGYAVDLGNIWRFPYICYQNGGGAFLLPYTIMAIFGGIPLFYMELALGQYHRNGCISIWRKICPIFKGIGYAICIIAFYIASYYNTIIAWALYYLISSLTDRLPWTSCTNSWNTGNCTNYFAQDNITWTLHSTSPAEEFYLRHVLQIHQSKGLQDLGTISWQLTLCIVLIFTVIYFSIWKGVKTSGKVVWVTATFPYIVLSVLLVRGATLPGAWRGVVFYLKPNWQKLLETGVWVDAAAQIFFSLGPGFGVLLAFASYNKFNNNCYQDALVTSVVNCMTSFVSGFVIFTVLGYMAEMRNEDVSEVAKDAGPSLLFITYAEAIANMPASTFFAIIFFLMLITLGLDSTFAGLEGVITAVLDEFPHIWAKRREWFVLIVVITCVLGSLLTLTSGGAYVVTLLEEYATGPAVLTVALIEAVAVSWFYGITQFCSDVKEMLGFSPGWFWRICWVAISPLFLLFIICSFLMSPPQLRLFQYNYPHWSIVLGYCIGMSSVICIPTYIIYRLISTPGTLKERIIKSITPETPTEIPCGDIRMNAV

Chain of Sodium-dependent dopamine transporter (P23977 whole entry): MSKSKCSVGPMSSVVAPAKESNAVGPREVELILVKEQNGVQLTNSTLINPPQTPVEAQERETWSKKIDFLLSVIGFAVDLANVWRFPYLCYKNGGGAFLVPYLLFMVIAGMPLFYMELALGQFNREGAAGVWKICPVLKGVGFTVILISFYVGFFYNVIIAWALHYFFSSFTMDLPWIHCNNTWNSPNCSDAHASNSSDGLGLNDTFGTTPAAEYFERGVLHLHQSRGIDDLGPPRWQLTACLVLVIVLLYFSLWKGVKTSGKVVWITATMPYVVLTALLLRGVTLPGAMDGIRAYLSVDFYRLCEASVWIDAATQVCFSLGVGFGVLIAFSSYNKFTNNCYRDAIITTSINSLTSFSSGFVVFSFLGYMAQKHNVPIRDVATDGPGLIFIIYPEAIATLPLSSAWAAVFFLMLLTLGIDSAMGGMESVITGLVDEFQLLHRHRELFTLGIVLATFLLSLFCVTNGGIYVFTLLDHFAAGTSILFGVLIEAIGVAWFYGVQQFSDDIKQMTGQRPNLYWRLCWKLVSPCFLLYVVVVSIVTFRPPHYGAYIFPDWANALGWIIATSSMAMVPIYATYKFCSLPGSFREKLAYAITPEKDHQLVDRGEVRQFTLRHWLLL
Chain of Norepinephrine transporter (Q9WTR4 whole entry): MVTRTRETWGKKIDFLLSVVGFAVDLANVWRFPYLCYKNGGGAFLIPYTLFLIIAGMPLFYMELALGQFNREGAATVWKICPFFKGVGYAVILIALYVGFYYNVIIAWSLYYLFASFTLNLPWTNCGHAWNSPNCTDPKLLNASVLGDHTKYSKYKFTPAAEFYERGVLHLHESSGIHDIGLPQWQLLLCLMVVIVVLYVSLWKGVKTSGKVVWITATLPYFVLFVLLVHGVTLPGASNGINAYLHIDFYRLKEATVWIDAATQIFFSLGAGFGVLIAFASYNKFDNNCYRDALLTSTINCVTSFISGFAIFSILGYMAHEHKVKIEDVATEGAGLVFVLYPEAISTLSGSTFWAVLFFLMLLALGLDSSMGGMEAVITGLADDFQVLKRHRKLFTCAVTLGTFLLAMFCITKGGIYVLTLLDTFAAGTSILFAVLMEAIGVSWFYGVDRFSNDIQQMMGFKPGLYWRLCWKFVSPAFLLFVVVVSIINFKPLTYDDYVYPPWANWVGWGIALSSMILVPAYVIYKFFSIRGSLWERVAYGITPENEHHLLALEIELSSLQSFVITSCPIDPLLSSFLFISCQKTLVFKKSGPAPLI

SMILES | IC50 [1] | IC50 [2] | IC50 [3]
COC(=O)C1C(c2ccc(C)cc2)CC2CCC1N2C (centres undefined) | 275 nM | 10.2 nM | –
COC(=O)[C@H]1[C@@H](c2ccc(F)cc2)C[C@H]2CC[C@H]1N2C (stereo in doubt; 1a) | – | – | 810 nM
COC(=O)[C@H]1[C@@H](c2ccc(F)cc2)C[C@H]2CC[C@H]1N2C (stereo in doubt; 2a) | – | – | 5060 nM
COC(=O)C1C(c2ccc(Cl)cc2)CC2CCC1N2C (stereo in doubt; 2c) | – | 2.4 nM | 998 nM
COC(=O)[C@@H]1C2CC[C@H](C[C@@H]1c1ccccc1)N2C (stereo in doubt; 2e) | – | 101 nM | –
COC(=O)C1C(c2ccc(I)cc2)CC2CCC1N2C (stereo in doubt; form 1) | 52.4 nM | 2.85 nM | –
